Experimental findings from patent publication US12252480B2, “Salt forms and polymorphs of (R)-1-(4-(6-(2-(4-(3,3-difluorocyclobutoxy)-6-methylpyridin-2-yl)acetamido) pyridazin-3-yl)-2-fluorobutyl)-n-methyl-1H-1,2,3-triazole-4-carboxamide” (Board of Regents, The University of Texas System, priority 2015, dated 2025) are described below.

The test system of data set [1] is A549 cells. Nature of the data set: Proliferation Assay (A549, Cell Titer Fluor). The note with it: Homo sapiens, 72 hours incubation, read-out: EC50 against A549 cell proliferation. The class given is cell-based. As to the method:
Proliferation Assay. A549 cells were routinely maintained in RPMI 1640 media (Gibco catalog number 11875-093) supplemented with 10% dialyzed fetal bovine serum using a humidified incubator (37° C., 5% CO2 and ambient O2). In preparation for the viability assay, cells were inoculated into 384-well black CulturPlates (Perkin Elmer) at a density of 1000 cells/well in a volume of 40 uL. Following a 24-hour incubation at 37° C., 5% CO2 and ambient O2, cells were treated with compound (10 uL) in a final DMSO concentration of 0.5% (v/v). The microplates were then incubated for 72 hours (37° C., 5% CO2 and ambient O2). Cell Titer Fluor (Promega) was subsequently added (10 uL of 6× reagent) and mixed for 15 minutes at room temperature. The plates were then incubated for 30 minutes (37° C., 5% CO2 and ambient O2) and fluorescence was subsequently read on the Perkin Elmer Envision plate reader. IC50 values were calculated using a four-parameter logistic curve fit.

Data set [2] in a line: Dynamic Vapor Sorption (DVS). The data set is classed as physicochemical. As to the method: Dynamic Vapor Sorption (DVS) was examined with an SMS Advantage instrument. About 10 mg of sample was transferred into the instrument, and the weight change with respect to the atmospheric humidity at 25° C. was recorded accordingly, with the following parameters: Equilibrium: dm/dt: 0.01%/min. (for min: 10 min and max: 180 min); drying: 0% RH for 120 min; RH (%) measurement step: 10%; RH (%) measurement step scope: 0-90-0%.

Take `CNC(=O)c1cn(C[C@H](F)CCc2ccc(NC(=O)Cc3cc(OC4CC(F)(F)C4)cc(C)n3)nn2)nn1` [Example 1, (R)-1-(4-(6-(2-(4-(3,3-difluorocyclobutoxy)-6-methylpyridin-2-yl)acetamido)pyridazin-3-yl)-2-fluorobutyl)-N-methyl-1H-1,2,3-triazole-4-carboxamide]: the EC50 in data set [1] was under 100 nM.
Turning to `CNC(=O)c1cn(C[C@H](F)CCc2ccc(NC(=O)Cc3cc(OC4CC(F)(F)C4)cc(C)n3)nn2)nn1` [Polymorph D, (R)-1-(4-(6-(2-(4-(3,3-difluorocyclobutoxy)-6-methylpyridin-2-yl)acetamido)pyridazin-3-yl)-2-fluorobutyl)-N-methyl-1H-1,2,3-triazole-4-carboxamide], the “hygroscopicity (DVS result)” value in data set [2] (25° C., 0-80% RH) is listed as “non-hygroscopic”. The “Change of Mass, Desorption” value in data set [2] (Target % P/P0 0) turned out to be 0.052%; in data set [2] (Target % P/P0 10), 0.0276%; in data set [2] (Target % P/P0 20), 0.0440%; in data set [2] (Target % P/P0 30), 0.0587%; in data set [2] (Target % P/P0 40), 0.0759%; in data set [2] (Target % P/P0 50), 0.0906%. Besides, the “Change of Mass, Desorption” value is 0.1087% in data set [2] (Target % P/P0 60), 0.1294% in data set [2] (Target % P/P0 70), 0.1527% in data set [2] (Target % P/P0 80) and 0.1768% in data set [2] (Target % P/P0 90). Further, the “Change of Mass, Sorption” value was 0.000% in data set [2] (Target % P/P0 0); 0.0216% in data set [2] (Target % P/P0 10); 0.0336% in data set [2] (Target % P/P0 20); 0.0474% in data set [2] (Target % P/P0 30); 0.0578% in data set [2] (Target % P/P0 40); 0.0690% in data set [2] (Target % P/P0 50). In addition, the “Change of Mass, Sorption” value in data set [2] (Target % P/P0 60) came out at 0.0828%; in data set [2] (Target % P/P0 70), 0.1035%; in data set [2] (Target % P/P0 80), 0.1337%; in data set [2] (Target % P/P0 90), 0.1768%. Besides, the “Change of Mass, Hysteresis” value amounted to 0.0060% in data set [2] (Target % P/P0 10); 0.0104% in data set [2] (Target % P/P0 20); 0.0112% in data set [2] (Target % P/P0 30); 0.0181% in data set [2] (Target % P/P0 40); 0.0216% in data set [2] (Target % P/P0 50); 0.0259% in data set [2] (Target % P/P0 60). In addition, the “Change of Mass, Hysteresis” value in data set [2] (Target % P/P0 70) was 0.0259%; in data set [2] (Target % P/P0 80), 0.0190%. In addition, in data set [2] (after DVS 0-90-0% RH), the “form transformation after DVS (XRPD overlay)” value was “no form transformation”. The water sorption in data set [2] (from 0-80% RH, 25° C.) was 0.1%.
